US7825139B2, “Compounds and methods for selective inhibition of dipeptidyl peptidase-IV” (Forest Laboratories Holdings Limited (BM), priority 2005, dated 2010)

How the values were obtained:
DPP-VIII = target: T1, DPP-VIII (Homo sapiens, UniProt Q6V1X1); assay: DPP-VIII IC50 assay (Ala-Pro AMC), selectivity versus DPP-IV; type: biochemical
T1 construct: The full length cDNAs for human DPP-VII, DPP-VIII, DPP-IX, and FAP were obtained from Open Biosystems; 6xHis (C); made in house
Text: The term “selectivity ratio” refers to the IC50 value generated in a biochemical assay measuring inhibition of DPP-IV compared to the IC50 value generated in a biochemical assay measuring inhibition of another DPP family member (e.g. DPP-VII, DPP-VIII, DPP-IX or FAP) whereby the ratio is obtained by dividing the IC50 value of DPP-VII, DPP-VIII, DPP-IX or FAP by the IC50 value for DPP-IV.
Materials. S9 insect cells and Sf-900 II SFM media were from Invitrogen. Anti-FLAG M2 immunoaffinity gel was from Sigma. Gly-Pro-AMC, Lys-Pro AMC, and Ala-Pro AMC were from Enzyme Systems. IC50 calculations were performed by non-linear regression analysis using Prism software (GraphPad). Preparation of DPP-VII, DPP-VIII, DPP-IX, and FAP baculovirus constructs. The full length cDNAs for human DPP-VII, DPP-VIII, DPP-IX, and FAP were obtained from Open Biosystems. […] Baculovirus was prepared using the Bac-to-Bac Baculovirus Expression System (Invitrogen). The cDNAs in the final baculovirus constructs were sequence verified. Baculovirus expression. […] Infection with DPP-VII, DPP-VIII, DPP-IX, and FAP baculoviral constructs were all performed at an MOI of 4. The infected cells were grown for 48 hours and the cell pellets harvested and frozen until purification. DPP-VII was purified using anti-FLAG immunoaffinity gel according to the manufacturer's instructions. DPP-VIII, DPP-IX, and FAP were purified using a B-PER 6xHis Fusion Protein Column Purification Kit from Pierce. IC50 assay. Recombinant DPPs were diluted in reaction buffer to give fluorescence values of 5000-20000 counts in the “enzyme only wells” 20 min after addition of substrate at 27° C. Reaction buffers were 25 mM (2-(4-Morpholino)-Ethane Sulfonic Acid), pH 5.5 for DPP-VII, 25 mM Tris, pH 8, 1% Triton X-100, 100 mM NaCl for DPP-VIII, and 25 mM Tris pH 8 for DPP-1× and FAP. Test wells in a 96-well microtiter plate contained 88 μL of diluted DPP and 2.5 ul of titrated compound in 50 mM glycine, pH 2.6. “Enzyme only” wells contained 88 uL of diluted DPP and 2.5 ul of glycine buffer. “No enzyme” wells contained 88 uL of reaction buffer without DPP and 2.5 ul of glycine buffer. All assays were done in triplicate. The plate was incubated at 27° C. for 10 min and then cooled on ice for 10 min. Ten microliters of substrate diluted in reaction buffer (40 uM final concentration) without Triton or NaCl were then added to all wells followed by incubation at 27C for 20 min. Substrates were Lys-Pro AMC for DPP-VII, and Ala-Pro AMC for DPP-VIII, DPP-IX, and FAP. Fluorescence in each well was measured at settings of 380/460 nm.

DPP-IV = target: T2, DPP-IV (Sus scrofa, UniProt P22411); assay: DPP-IV fluorometric enzyme inhibition assay (Gly-Pro-AMC); type: biochemical, porcine
T2 construct: from tissue; host or cells: porcine
Experimental: The following methods were used to measure the activities of the compounds of the invention which inhibit the enzymatic activity of DPP-IV. The compounds of the invention are tested for their ability to inhibit the enzyme activity of purified DPP-IV. Briefly, the activity of DPP-IV is measured in vitro by its ability to cleave the synthetic substrate Gly-Pro-AMC. Cleavage of Gly-Pro-AMC by DPP-IV liberates the product AMC (7-amino-4-methyl coumarin), whose rate of appearance is directly proportional to the enzyme activity. Inhibition of the enzyme activity by specific enzyme inhibitors slows down the generation of AMC. […] The accumulation of AMC is measured fluorometrically. […]
Thus, DPP-IV enzyme activity was determined by a fluorometric assay with the substrate Gly-Pro-AMC which is cleaved by DPP-IV to release the fluorescent AMC leaving group. Free AMC (7-amino-4-methyl coumarin) was measured using an excitation wavelength of 380 nm and an emission wavelength of 460 nm with a Victor-II fluorescent reader. […] After 10-minutes substrate was added (10 μl) and allowed to react for 20-minutes at 26° C. before free AMC was measured. IC50 values were determined in triplicate, using a minimum of six different inhibitor concentrations. IC50 values were calculated using Nonlinear Regression Analysis (GraphPad, Prism, San Diego, Calif.). […]

dogs = assay: Toxicity in dogs, escalated oral dose study; type: in vivo; conditions: at 2.0 mg/kg, within 2-4 hours of dosing
Experimental: The 2.0 mg/kg dose of compound 19 correlated with the time above the DPP-VIII IC90 but not with the time above DPP-IX IC90. By comparison, a previously known selective inhibitor (compound 10 in U.S. patent application Ser. […]

T1 sequence (Q6V1X1 whole entry): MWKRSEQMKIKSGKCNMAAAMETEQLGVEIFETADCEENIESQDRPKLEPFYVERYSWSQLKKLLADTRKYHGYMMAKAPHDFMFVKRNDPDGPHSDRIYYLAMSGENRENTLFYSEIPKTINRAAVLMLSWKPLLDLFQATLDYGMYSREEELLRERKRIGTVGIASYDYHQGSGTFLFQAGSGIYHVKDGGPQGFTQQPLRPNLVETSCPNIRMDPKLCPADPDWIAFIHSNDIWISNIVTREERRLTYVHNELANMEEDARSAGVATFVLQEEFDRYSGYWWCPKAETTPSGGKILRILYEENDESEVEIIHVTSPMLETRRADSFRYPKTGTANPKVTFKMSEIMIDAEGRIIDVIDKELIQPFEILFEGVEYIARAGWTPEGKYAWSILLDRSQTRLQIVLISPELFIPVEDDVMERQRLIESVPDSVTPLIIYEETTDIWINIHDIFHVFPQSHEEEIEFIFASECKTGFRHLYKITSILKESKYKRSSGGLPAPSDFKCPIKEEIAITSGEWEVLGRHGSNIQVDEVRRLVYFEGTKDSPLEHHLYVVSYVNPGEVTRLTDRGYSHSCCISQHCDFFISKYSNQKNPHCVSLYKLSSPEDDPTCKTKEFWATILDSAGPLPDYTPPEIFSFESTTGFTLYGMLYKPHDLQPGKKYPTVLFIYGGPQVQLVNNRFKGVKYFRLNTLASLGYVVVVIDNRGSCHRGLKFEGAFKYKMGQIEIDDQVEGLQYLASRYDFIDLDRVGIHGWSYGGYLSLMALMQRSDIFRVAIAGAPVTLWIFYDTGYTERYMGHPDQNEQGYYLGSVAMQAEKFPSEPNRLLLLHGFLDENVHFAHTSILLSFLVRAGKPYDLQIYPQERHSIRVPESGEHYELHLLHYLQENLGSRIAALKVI
T2 sequence (P22411 whole entry): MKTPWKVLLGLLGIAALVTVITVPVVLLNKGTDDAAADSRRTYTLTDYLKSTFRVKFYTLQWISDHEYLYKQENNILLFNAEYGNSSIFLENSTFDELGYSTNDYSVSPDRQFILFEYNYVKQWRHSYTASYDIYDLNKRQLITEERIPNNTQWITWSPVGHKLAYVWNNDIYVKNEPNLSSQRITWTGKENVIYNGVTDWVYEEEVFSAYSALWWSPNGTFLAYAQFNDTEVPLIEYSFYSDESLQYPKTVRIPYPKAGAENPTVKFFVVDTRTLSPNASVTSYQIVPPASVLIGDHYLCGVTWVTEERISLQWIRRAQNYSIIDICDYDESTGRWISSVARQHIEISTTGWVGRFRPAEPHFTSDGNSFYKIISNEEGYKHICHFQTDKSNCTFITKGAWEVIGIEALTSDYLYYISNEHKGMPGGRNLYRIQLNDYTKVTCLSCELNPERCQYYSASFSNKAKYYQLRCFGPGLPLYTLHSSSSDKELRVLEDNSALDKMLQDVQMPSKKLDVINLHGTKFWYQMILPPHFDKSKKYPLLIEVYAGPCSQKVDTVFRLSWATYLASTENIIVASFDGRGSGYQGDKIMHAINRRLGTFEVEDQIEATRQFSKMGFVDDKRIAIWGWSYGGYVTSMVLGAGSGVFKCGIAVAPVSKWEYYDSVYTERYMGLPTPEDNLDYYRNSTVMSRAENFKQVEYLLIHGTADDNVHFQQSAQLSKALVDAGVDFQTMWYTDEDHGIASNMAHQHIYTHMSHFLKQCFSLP

Question: For `O=C(CNC1CCCC1)N1CCC[C@H]1B(O)O` [Compound 19], which “inhibition of DPP-VIII (in words)” value (DPP-VIII) is on record?
Answer: The value was “potent inhibitor”.

Question: And the “inhibition of DPP-IV (in words)” value (DPP-IV)?
Answer: Its value is “potent inhibitor”.

Question: And the toxicity in dogs (dogs)?
Answer: The toxicity in dogs was “severe emesis and diarrhea”.
